Reference: US12419863B2, “Pharmaceutical composition for use in treatment of hypertrophic cardiomyopathy” (CELLTRION INC., priority 2018, dated 2025)

How the values were obtained:
[1] = Clinical safety and tolerability evaluation with 12-electrode electrocardiogram, single oral administration (Example 1); details: healthy subjects; for QRS / QTcF: oral
Experimental: Randomized, double-blind, placebo-controlled, sequential, ascending, single dosing studies were conducted to evaluate safety, tolerability, pharmacokinetics and pharmacodynamics of cibenzoline.
In this study, a total of 24 subjects were randomly assigned 1:1:1 to three cohorts and proceeded in a total of four stages: screening, treatment period 1, withdrawal period, and treatment period 2. The ratio between the dosed group and the non-dosed group (placebo) is assigned as 6:2.
The main endpoints are safety, tolerability and side effects, and the clinical test items are corrected QT interval (calculated by Fridericia formula) [QTc(F)]), QT interval, and QRS interval, PR interval, and 12-electrode electrocardiogram including ventricular rate, vital signs (blood pressure, pulse, body temperature, respiration rate), hypersensitivity reaction (determined by electrocardiogram recording and vital signs), clinical inspection evaluation (hematology, blood chemistry, urinalysis, etc.), adverse reactions (including serious adverse reactions).

[2] = Clinical safety and tolerability evaluation with electrocardiogram, repeated oral administration (Example 2); format: in vivo, human; details: cohorts 4 and 5: 200 mg once a day for 5 days and 300 mg once a day for 14 days, healthy subjects
[3] = patients with hypertrophic cardiomyopathy; no control group; cited from earlier work
[4] = Cohort 1: 200 mg once, Day 1, 1.5 h after administration
[5] = Cohort 1: 200 mg once, Day 1, 3 h after administration
[6] = Cohort 1: 200 mg once, Day 1, 8 h after administration
[7] = Cohort 1: 200 mg once, Day 1 before administration (baseline)
[8] = Cohort 2: 300 mg once, Day 1, 1.5 h after administration
[9] = Cohort 2: 300 mg once, Day 1, 3 h after administration
[10] = Cohort 2: 300 mg once, Day 1, 8 h after administration
[11] = Cohort 2: 300 mg once, Day 1 before administration (baseline)

With `c1ccc(C2(c3ccccc3)CC2C2=NCCN2)cc1` (stereo not drawn) [S(−)-cibenzoline] the “side effects (safety and tolerability)” value ([1]; 200 mg and 300 mg once a day, single oral administration, compared to cohort 3 (racemic mixture 150 mg 3 times a day)) was “did not cause significant side effects”, the QRS [1, 4] was 102 ms and the QTcF [1, 4] was 412 ms. The QRS [1, 5] was 107 ms, the QTcF [1, 5] was 426 ms and the QRS [1, 6] was 99 ms. It also gave a QTcF [1, 6] of 408 ms, a QRS [1, 7] of 92 ms and a QTcF [1, 7] of 406 ms. It also gave a QRS [1, 8] of 107 ms, a QTcF [1, 8] of 419 ms and a QRS [1, 9] of 116 ms. It also gave a QTcF [1, 9] of 429 ms, a QRS [1, 10] of 107 ms and a QTcF [1, 10] of 415 ms. The QRS [1, 11] was 101 ms, the QTcF [1, 11] was 411 ms and the “effects of QcTF and QRS prolongation (electrocardiography)” value ([1]; cohorts 1 and 2: 200 mg and 300 mg, single oral administration) was “QcTF and QRS prolongation were confirmed”. The “effects of QcTF and QRS prolongation (electrocardiography)” value [2] was “QcTF and QRS prolongation were confirmed” and the “side effects for multiple administration (safety and tolerability)” value ([2]; compared to cohort 6 (racemic mixture 150 mg 3 times a day, 14 days)) was “did not cause significant side effects”.
In the case of `c1ccc(C2(c3ccccc3)CC2C2=NCCN2)cc1` (racemic) [cibenzoline, 2-(2,2-diphenylcyclopropyl)-4,5-dihydro-1H-imidazole], the “side effects compared with disopyramide” value [3] is listed as “fewer side effects than disopyramide”.
